This is an account of results in ChEMBL document CHEMBL4152252, “Fluorine walk: The impact of fluorine in quinolone amides on their activity against African sleeping sickness” (Eur J Med Chem, 2018).

Molecules are shown by their SMILES. pIC50: −log10 of the molar value. In brackets after ≈: the same amount, converted by molar mass.

Data set [1] is described as follows: Cytotoxicity against mouse J774.1 cells after 24 hrs by Alamar blue assay. The class given is cell-based. For orientation: Resazurin is reduced to fluorescent resorufin, in cell work by metabolically active cells.
Data set [2] can be described thus: Drug metabolism in rat liver microsomes assessed as CYP450-mediated 6-fluoro-3-(4-fluorobenzylcarbamoyl)-1-(3-hydroxybutyl)-7-morpholino-4-oxo-1,4-dihydroquinolinium formation at 100 uM using NADPH/H+ as co-factor after 30 to 90 mins by LC/MSD iom trap method. Format: ADME. (Liver microsomes are a subcellular fraction often used to study metabolism.)
The nature of data set [3]: Drug metabolism in rat liver microsomes assessed as CYP450-mediated 6-fluoro-3-(4-fluorobenzylcarbamoyl)-7-morpholino-4-oxo-1,4-dihydroquinolinium formation at 100 uM using NADPH/H+ as co-factor after 30 to 90 mins by LC/MSD iom trap method. Format: ADME.
A short description of data set [4]: Octanol/water partition co-efficient, log P of the compound by HPLC based method. The class given is physicochemical.
Data set [5] is described as follows: Drug metabolism in rat liver cytosol assessed as CYP450-mediated 6-fluoro-3-(4-fluorobenzylcarbamoyl)-1-methyl-7-morpholino-4-oxo-1,4-dihydroquinolinium formation at 100 uM using NADPH/H+ as co-factor after 30 to 90 mins by LC/MSD iom trap method. Format: ADME, subcellular.
The nature of data set [6]: Drug metabolism in rat liver microsomes assessed as CYP450-mediated 6-fluoro-3-(4-fluorobenzylcarbamoyl)-1-methyl-7-morpholino-4-oxo-1,4-dihydroquinolinium formation at 100 uM using NADPH/H+ as co-factor after 30 to 90 mins by LC/MSD iom trap method. Format: ADME.
Data set [7] is described as follows: Drug metabolism in rat liver cytosol assessed as CYP450-mediated 6-fluoro-3-(4-fluorobenzylcarbamoyl)-1-(3-hydroxybutyl)-7-morpholino-4-oxo-1,4-dihydroquinolinium formation at 100 uM using NADPH/H+ as co-factor after 30 to 90 mins by LC/MSD iom trap method. Format: ADME, subcellular.
The nature of data set [8]: Drug metabolism in rat liver microsomes assessed as CYP450-mediated 1-butyl-3-carboxy-6-fluoro-7-morpholino-4-oxo-1,4-dihydroquinolinium formation at 100 uM using NADPH/H+ as co-factor after 30 to 90 mins by LC/MSD iom trap method. Format: ADME.
Data set [9] is described as follows: Selectivity index, ratio of CC50 for mouse J774.1 cells to IC50 for trypomastigote forms of Trypanosoma brucei brucei TC 221 assessed as parasite growth inhibition after 48 hrs. To be noted: read-out: Ratio CC50/IC50. Format: toxicity.
Data set [10] is described as follows: Solubility of the compound in RPMI-1640 medium. The class given is physicochemical.
Data set [11] relates to Trypanosoma brucei brucei. Put plainly: Antitrypanosomal activity against trypomastigote forms of Trypanosoma brucei brucei TC 221 assessed as parasite growth inhibition after 72 hrs by Alamar blue assay. Format: functional, organism-based. To be noted: TC 221, 72 h.
Data set [12] has as its system Trypanosoma brucei brucei. In words: Antitrypanosomal activity against trypomastigote forms of Trypanosoma brucei brucei TC 221 assessed as parasite growth inhibition after 48 hrs by Alamar blue assay. Format: functional, organism-based. To be noted: TC 221, 48 h.
Data set [13] is described as follows: Drug metabolism in rat liver cytosol assessed as CYP450-mediated 1-butyl-3-carboxy-6-fluoro-7-morpholino-4-oxo-1,4-dihydroquinolinium formation at 100 uM using NADPH/H+ as co-factor after 30 to 90 mins by LC/MSD iom trap method. Format: ADME, subcellular.
Data set [14] can be described thus: Drug metabolism in rat liver cytosol assessed as CYP450-mediated 6-fluoro-3-(4-fluorobenzylcarbamoyl)-7-morpholino-4-oxo-1,4-dihydroquinolinium formation at 100 uM using NADPH/H+ as co-factor after 30 to 90 mins by LC/MSD iom trap method. Format: ADME, subcellular.
A short description of data set [15]: Half life in rat liver cytosol. The class given is ADME, subcellular.
The nature of data set [16]: Drug metabolism in rat liver microsomes assessed as CYP450-mediated 5-fluoro-3-(4-fluorobenzylcarbamoyl)-1-(3-hydroxybutyl)-7-morpholino-4-oxo-1,4-dihydroquinolinium formation at 100 uM using NADPH/H+ as co-factor after 30 to 90 mins by LC/MSD iom trap method. Format: ADME.
Data set [17] can be described thus: Drug metabolism in rat liver cytosol assessed as CYP450-mediated 5-fluoro-3-(4-fluorobenzylcarbamoyl)-7-morpholino-4-oxo-1,4-dihydroquinolinium formation at 100 uM using NADPH/H+ as co-factor after 30 to 90 mins by LC/MSD iom trap method. Format: ADME, subcellular.
A short description of data set [18]: Drug metabolism in rat liver microsomes assessed as CYP450-mediated 5-fluoro-3-(4-fluorobenzylcarbamoyl)-1-methyl-7-morpholino-4-oxo-1,4-dihydroquinolinium formation at 100 uM using NADPH/H+ as co-factor after 30 to 90 mins by LC/MSD iom trap method. The class given is ADME.
The nature of data set [19]: Drug metabolism in rat liver microsomes assessed as CYP450-mediated 5-fluoro-3-(4-fluorobenzylcarbamoyl)-7-morpholino-4-oxo-1,4-dihydroquinolinium formation at 100 uM using NADPH/H+ as co-factor after 30 to 90 mins by LC/MSD iom trap method. The class given is ADME.
A short description of data set [20]: Drug metabolism in rat liver microsomes assessed as CYP450-mediated 1-butyl-3-carboxy-5-fluoro-7-morpholino-4-oxo-1,4-dihydroquinolinium formation at 100 uM using NADPH/H+ as co-factor after 30 to 90 mins by LC/MSD iom trap method. The class given is ADME.
A short description of data set [21]: Drug metabolism in rat liver cytosol assessed as CYP450-mediated 5-fluoro-3-(4-fluorobenzylcarbamoyl)-1-methyl-7-morpholino-4-oxo-1,4-dihydroquinolinium formation at 100 uM using NADPH/H+ as co-factor after 30 to 90 mins by LC/MSD iom trap method. The class given is ADME, subcellular.
Data set [22] is described as follows: Stability in rat liver cytosol assessed as compound turnover per mg protein. The class given is ADME, subcellular.
Data set [23] can be described thus: Drug metabolism in rat liver cytosol assessed as CYP450-mediated 1-butyl-3-carboxy-5-fluoro-7-morpholino-4-oxo-1,4-dihydroquinolinium formation at 100 uM using NADPH/H+ as co-factor after 30 to 90 mins by LC/MSD iom trap method. Format: ADME, subcellular.
Data set [24] can be described thus: Drug metabolism in rat liver cytosol assessed as CYP450-mediated 5-fluoro-3-(4-fluorobenzylcarbamoyl)-1-(3-hydroxybutyl)-7-morpholino-4-oxo-1,4-dihydroquinolinium formation at 100 uM using NADPH/H+ as co-factor after 30 to 90 mins by LC/MSD iom trap method. The class given is ADME, subcellular.
Data set [25] is described as follows: Drug metabolism in rat liver microsomes assessed as CYP450-mediated amide hydrolysis oxidative N-dealkylation by measuring 3-carbamoyl-5-fluoro-1-methyl-7-morpholino-4-oxo-1,4-dihydroquinolinium formation at 100 uM using NADPH/H+ as co-factor after 30 to 90 mins by LC/MSD iom trap method. Format: ADME.
Data set [26] is described as follows: Thermodynamic equilibrium solubility of the compound in pH 7.4 phosphate buffered saline after 24 hrs by shake flask method. Format: physicochemical. To be noted: read-out: Therm_solubility.
A short description of data set [27]: Drug metabolism in rat liver microsomes assessed as CYP450-mediated (w-1)-oxidation/alipathic hydroxylation by measuring 3-(benzylcarbamoyl)-5-fluoro-1-(3-hydroxybutyl)-7-morpholino-4-oxo-1,4-dihydroquinolinium formation at 100 uM using NADPH/H+ as co-factor after 30 to 90 mins by LC/MSD iom trap method. The class given is ADME.
The nature of data set [28]: Drug metabolism in rat liver cytosol assessed as CYP450-mediated amide hydrolysis amidase by measuring 1-butyl-3-carbamoyl-5-fluoro-7-morpholino-4-oxo-1,4-dihydroquinolinium formation at 100 uM using NADPH/H+ as co-factor after 30 to 90 mins by LC/MSD iom trap method. The class given is ADME, subcellular.
A short description of data set [29]: Drug metabolism in rat liver microsomes assessed as CYP450-mediated amide hydrolysis amidase by measuring 1-butyl-3-carbamoyl-5-fluoro-7-morpholino-4-oxo-1,4-dihydroquinolinium formation at 100 uM using NADPH/H+ as co-factor after 30 to 90 mins by LC/MSD iom trap method. The class given is ADME.
Data set [30] in a line: Drug metabolism in rat liver microsomes assessed as CYP450-mediated oxidative N-dealkylation by measuring 3-(benzylcarbamoyl)-1-ethyl-5-fluoro-7-morpholino-4-oxo-1,4-dihydroquinolinium formation at 100 uM using NADPH/H+ as co-factor after 30 to 90 mins by LC/MSD iom trap method. Format: ADME.
Data set [31] in a line: Drug metabolism in rat liver cytosol assessed as CYP450-mediated amide hydrolysis oxidative N-dealkylation by measuring 3-carbamoyl-5-fluoro-1-methyl-7-morpholino-4-oxo-1,4-dihydroquinolinium formation at 100 uM using NADPH/H+ as co-factor after 30 to 90 mins by LC/MSD iom trap method. The class given is ADME, subcellular.
Data set [32] can be described thus: Drug metabolism in rat liver cytosol assessed as CYP450-mediated (w-1)-oxidation/alipathic hydroxylation by measuring 3-(benzylcarbamoyl)-5-fluoro-1-(3-hydroxybutyl)-7-morpholino-4-oxo-1,4-dihydroquinolinium formation at 100 uM using NADPH/H+ as co-factor after 30 to 90 mins by LC/MSD iom trap method. Format: ADME, subcellular.
Data set [33] in a line: Drug metabolism in rat liver cytosol assessed as CYP450-mediated oxidative N-dealkylation by measuring 3-(benzylcarbamoyl)-1-ethyl-5-fluoro-7-morpholino-4-oxo-1,4-dihydroquinolinium formation at 100 uM using NADPH/H+ as co-factor after 30 to 90 mins by LC/MSD iom trap method. Format: ADME, subcellular.

In data set [1], `CCCCn1cc(C(=O)NCc2ccc(F)cc2)c(=O)c2cc(F)c(N3CCOCC3)cc21` showed a CC50 at 24 h of over 20000 nM. The Drug metabolism result in data set [2], in data set [3], in [5], in [6], in data set [7] and in data set [8] was “Metabolite_Detected” in each case. Further, the Drug metabolism entry in data set [13] and in [14] was “Metabolite_Detected” in each case. Moreover, the logP in data set [4] was determined as 4.13. Besides, the selectivity ratio at 48 h in data set [9] was over 400. In addition, in data set [10], the solubility entry is on record as “Insoluble”. Also, the negative logarithm of the IC50 (pIC50) is 7.05 in data set [11] and 7.30 in [12]. The compound further showed a half-life in [15] of 6.4 h.

`CCCCn1cc(C(=O)NCc2ccc(F)cc2)c(=O)c2c(F)cc(N3CCOCC3)cc21` showed a cytotoxic concentration (CC50) at 24 h in data set [1] of over 25000 nM. Moreover, the Drug metabolism result in data set [16], in data set [17], in data set [18], in data set [19], in data set [20] and in [21] was “Metabolite_Detected” each time. In addition, the Drug metabolism in data set [22] is listed as 3.89 pmol/min/mg protein; in data set [23], “Metabolite_Detected”; in data set [24], “Metabolite_Detected”. The lipophilicity (logP) in data set [4] was found to be 3.41. Besides, the selectivity ratio at 48 h in [9] was over 1250. Moreover, in data set [10], the solubility result is given as “Insoluble”. Further, the negative-log IC50 (pIC50) in data set [11] and in data set [12] was 7.70 throughout. The half-life in data set [15] was 7.7 h.

In the case of `CCCCn1cc(C(=O)NCc2ccccc2)c(=O)c2c(F)cc(N3CCOCC3)cc21`, the Drug metabolism entry in [25], in data set [27], in [28], in data set [29], in data set [30] and in [31] was “Metabolite_Detected” in each case. Further, the figures for the Drug metabolism in data set [22], in [32] and in data set [33] were 4.3 pmol/min/mg protein, “Metabolite_Detected” and “Metabolite_Detected”, respectively. For the same compound, the solubility thermodynamic at 24 h in data set [26] is 0.12 µg/mL (≈ 0.274 µM). The same compound gave a CC50 at 24 h in data set [1] of over 100000 nM. Further, the lipophilicity (logP) in data set [4] stood at 3.36. In addition, in data set [9], the selectivity ratio at 48 h was over 2000. For the same compound, the pIC50 in [11] was 7.10; in data set [12], 7.30. The half-life in data set [15] was 7.2 h.

For orientation: CC50 means the concentration at which the toxic effect on the cells reaches its halfway point. Read a high CC50 as lower toxicity to the cells. By logP is commonly meant a log measure of how a compound divides between an organic and an aqueous phase. A high value points to a more lipophilic compound. One may read the pIC50 as the IC50 on a negative log10 scale, so that one unit is a factor of ten. By half-life is commonly meant how long it takes for the measured level to halve.
